Legend:
[1] = Amine concentration in brine #2 over amine-coated core sand, titration with 10% acetic acid (Example 5); settings: titration with 10 wt % acetic acid, core sand in brine #2
[2] = Amine concentration in brine #2 over amine-coated core sand, titration with 1N HCl (Example 2); type: physicochemical; settings: core sand in brine #2
Experimental: Helium was used as the carrier gas.
38 milligrams (mg) of N N-Dimethyl-1-Dodecanamine (hereafter referred to as “the amine”) was added to 10.210 gr of Pentane. This solution was added to 10.1845 gr of specific sand layers (Oa and Ob) obtained from the Schrader Bluff formation of the Milne Point Unit of the Alaskan North slope. The oil content of the sand was first removed using a mixture of methanol and toluene (50/50, volume/volume) as solvent washes. The solvent mixture was subsequently evaporated off the core sand to produce clean, dry, flowable core sand. This sand was mixed with the amine and pentane solution to produce a slurry. This slurry was thoroughly mixed and the pentane was evaporated off leaving the amine on the sand (hereafter referred to as sand/amine mixture). 100 ml of brine #2 (Table 3) was added to the sand/amine mixture to create the sand/amine/brine mixture. […] The fact that the amine was not detected underlined its strong binding to the sand particles. […] The data underlines the remarkable efficiency of an acid at ionizing and removing the amine from the sand.

[3] = Amine concentration in brine #2 over amine-coated core sand, titration with 10% nitric acid (Example 4); settings: titration with 10 wt % nitric acid, core sand in brine #2
Experimental: Concentration of amines, in media and water, were analyzed by gas chromatography (GC). An Agilent Model 5890 (Agilent, Wilmington, Del.), GC equipped with a […] and a split/splitless injector, a DB-FFAP column (30 meter length×0.32 millimeter (mm) depth×0.25 micrometer particle size). […] The system was calibrated using a sample of N,N-Dimethyl-1-Dodecaneamine (Aldrich). Helium was used as the carrier gas. A temperature gradient of 50 degrees Celsius (° C.) to 250° C. at 30° C. increase per minute (min) was used. Retention times (in minutes, min) for various chemicals of interest included: N,N-Dimethyl-1-Dodecaneamine (8.08 min); N,N-Dimethyl-1-Tetradecaneamine (8.85 min); N,N-Dimethyl-1-Hexadecane-amine (9.90 min); N,N-Dimethyl-1-Octadecaneamine (10.26 min) and N-Methyl,N-Benzyl)-1-Tetradecaneamine (11.40 min).
The procedure outlined in Example 2 was used to produce the sand/amine mixture except that 519 mg of the amine, 10 gr of Pentane. and 60.062 gr of sand from the Oa and Ob layers were used. 29.065 gr of this sand/amine mixture was added to 100 ml of brine #2 (Table 3) to create the sand/amine/brine mixture. […] 0.1 ml of 10 weight percent (wt %) nitric acid in water was added to this solution, and the pH and the amine concentration were measured again.

CCCCCCCCCCCCN(C)C [N N-Dimethyl-1-Dodecanamine]
pH of complete ionization and solubilization in the water of the amine [1]: < 6.7 | pH of complete ionization and solubilization of the amine in the water [2]: < 6.0 | pH of complete ionization and solubilization in the water of the amine [3]: < 6.7
